Results: PubChem BioAssay AID1963868 (Molecular Pharmacology Branch, DTP, NCI, 2024)
Where “and” joins values, the source holds several entries; their conditions need not be identical. Equal values may be shown once.

Test system: KRAS PDC tumor spheroids (HUVEC+MSC), viability
Assay: Anticancer human tumor 254851-301-R-J1-PDC patient-derived colon carcinoma cell line growth inhibition [KRAS2]
Conditions: for viability, T/C: stronger effect = lower value; active = viability on the fitted dose curve at most 10% of control; inactive = the rest
In short: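 Combination screen of spheroid viability in tumor-cell co-cultures with endothelial (HUVEC) and mesenchymal stem cell stroma. Each agent was tested in half-log dilutions, topping at clinical Cmax or at 10 microM without a known Cmax.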

[1] = curve of first compound, second compound 0.1 µM
[2] = curve of first compound, second compound 0.316 µM
[3] = curve of first compound, second compound 1 µM
[4] = curve of first compound, second compound 3.16 µM
[5] = curve of first compound, second compound 10 µM
[6] = second compound 0.1 µM, first compound 0.0316 µM
[7] = second compound 0.1 µM, first compound 0.1 µM
[8] = second compound 0.1 µM, first compound 0.316 µM
[9] = second compound 0.1 µM, first compound 1 µM
[10] = second compound 0.1 µM, first compound 3.16 µM
[11] = second compound 0.1 µM, first compound 10 µM
[12] = second compound 0.316 µM, first compound 0.0316 µM
[13] = second compound 0.316 µM, first compound 0.1 µM
[14] = second compound 0.316 µM, first compound 0.316 µM
[15] = second compound 0.316 µM, first compound 1 µM
[16] = second compound 0.316 µM, first compound 3.16 µM
[17] = second compound 0.316 µM, first compound 10 µM
[18] = second compound 1 µM, first compound 0.0316 µM
[19] = second compound 1 µM, first compound 0.1 µM
[20] = second compound 1 µM, first compound 0.316 µM
[21] = second compound 1 µM, first compound 1 µM
[22] = second compound 1 µM, first compound 3.16 µM
[23] = second compound 1 µM, first compound 10 µM
[24] = second compound 3.16 µM, first compound 0.0316 µM
[25] = second compound 3.16 µM, first compound 0.1 µM
[26] = second compound 3.16 µM, first compound 0.316 µM
[27] = second compound 3.16 µM, first compound 1 µM
[28] = second compound 3.16 µM, first compound 3.16 µM
[29] = second compound 3.16 µM, first compound 10 µM
[30] = second compound 10 µM, first compound 0.0316 µM
[31] = second compound 10 µM, first compound 0.1 µM
[32] = second compound 10 µM, first compound 0.316 µM
[33] = second compound 10 µM, first compound 1 µM
[34] = second compound 10 µM, first compound 3.16 µM
[35] = second compound 10 µM, first compound 10 µM
[36] = curve of first compound, second compound 0.0316 µM
[37] = second compound 0.0316 µM, first compound 0.0316 µM
[38] = second compound 0.0316 µM, first compound 0.1 µM
[39] = second compound 0.1 µM, first compound 0.01 µM
[40] = second compound 0.316 µM, first compound 0.01 µM
[41] = second compound 1 µM, first compound 0.01 µM
[42] = second compound 3.16 µM, first compound 0.01 µM
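Also: spheroids exposed to compounds for seven days before readout.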
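For viability, T/C in this document: 100% = DMSO vehicle control luminescence of the spheroids.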

CC(C)NCC(C(=O)N1CCN(c2ncnc3c2C(C)CC3O)CC1)c1ccc(Cl)cc1 (configuration not stated) + COc1cc2nc(C)nc(NC(C)c3cc(N)cc(C(F)(F)F)c3)c2cc1OC1CCOC1
3160 nM: IC50 [4]
2020 nM: IC50 [3]
> 10000 nM: IC50 [1] | IC50 [2]
inactive: viability, T/C [6] 107% | viability, T/C [7] 99.7% | viability, T/C [8] 99.7% | viability, T/C [9] 91.5% | viability, T/C [10] 39.8% | viability, T/C [11] 75.7% | viability, T/C [12] 101% | viability, T/C [13] 98.2% | viability, T/C [14] 84.3% | viability, T/C [15] 84.1% | viability, T/C [16] 31.1% | viability, T/C [17] 71.4% | viability, T/C [18] 85.2% | viability, T/C [19] 100% | viability, T/C [20] 82.2% | viability, T/C [21] 78.5% | viability, T/C [22] 32.2% | viability, T/C [23] 13.7% | viability, T/C [24] 85.6% | viability, T/C [25] 83.2% | viability, T/C [26] 88.4% | viability, T/C [27] 44.5% | viability, T/C [28] 32.5% | viability, T/C [29] 75.1% | viability, T/C [30] 75.3% | viability, T/C [31] 82% | viability, T/C [32] 56.1% | viability, T/C [33] 41.2% | viability, T/C [34] 15.5% | viability, T/C [35] 29.4%
514 nM: IC50 [5]

O=C(c1cc(Cc2n[nH]c(=O)c3ccccc23)ccc1F)N1CCN(C(=O)C2CC2)CC1 + COc1cc2nc(C)nc(NC(C)c3cc(N)cc(C(F)(F)F)c3)c2cc1OC1CCOC1
inactive: viability, T/C [6] 111% | viability, T/C [7] 94.5% | viability, T/C [8] 98.5% | viability, T/C [9] 91.8% | viability, T/C [10] 101% | viability, T/C [11] 97.2% | viability, T/C [12] 94.5% | viability, T/C [13] 103% | viability, T/C [14] 95.1% | viability, T/C [15] 96.1% | viability, T/C [16] 96.4% | viability, T/C [17] 104% | viability, T/C [18] 101% | viability, T/C [19] 108% | viability, T/C [20] 101% | viability, T/C [21] 101% | viability, T/C [22] 98.1% | viability, T/C [23] 98.2% | viability, T/C [24] 94.9% | viability, T/C [25] 89.8% | viability, T/C [26] 89.5% | viability, T/C [27] 95.2% | viability, T/C [28] 90.4% | viability, T/C [29] 87.3% | viability, T/C [30] 94.9% | viability, T/C [31] 90% | viability, T/C [32] 91% | viability, T/C [33] 82.7% | viability, T/C [34] 76.2% | viability, T/C [35] 78%
> 10000 nM: IC50 [1] | IC50 [2] | IC50 [3] | IC50 [4] | IC50 [5]

O=C(c1cc(Cc2n[nH]c(=O)c3ccccc23)ccc1F)N1CCN(C(=O)C2CC2)CC1 + C=CC(=O)N1CCN(c2nc(OCC3CCCN3C)nc3c2CCN(c2cccc4cccc(C)c24)C3)CC1CC#N
> 10000 nM: IC50 [36] | IC50 [1] | IC50 [2] | IC50 [3] | IC50 [4]
inactive: viability, T/C [37] 108% | viability, T/C [38] 111% | viability, T/C (second compound 0.0316 µM, first compound 0.316 µM) 96% | viability, T/C (second compound 0.0316 µM, first compound 1 µM) 96.4% | viability, T/C (second compound 0.0316 µM, first compound 3.16 µM) 81.5% | viability, T/C (second compound 0.0316 µM, first compound 10 µM) 84.9% | viability, T/C [6] 105% | viability, T/C [7] 106% | viability, T/C [8] 97.8% | viability, T/C [9] 104% | viability, T/C [10] 93.5% | viability, T/C [11] 92.6% | viability, T/C [12] 101% | viability, T/C [13] 99.6% | viability, T/C [14] 102% | viability, T/C [15] 99.7% | viability, T/C [16] 98.4% | viability, T/C [17] 92.7% | viability, T/C [18] 96.8% | viability, T/C [19] 98.7% | viability, T/C [20] 101% | viability, T/C [21] 92% | viability, T/C [22] 99.8% | viability, T/C [23] 92.1% | viability, T/C [24] 67.8% | viability, T/C [25] 55.4% | viability, T/C [26] 72.5% | viability, T/C [27] 60.1% | viability, T/C [28] 69.4% | viability, T/C [29] 69.4%

Cn1ncnc1[C@H]1c2n[nH]c(=O)c3cc(F)cc(c23)N[C@@H]1c1ccc(F)cc1 + C=CC(=O)N1CCN(c2nc(OCC3CCCN3C)nc3c2CCN(c2cccc4cccc(C)c24)C3)CC1CC#N
inactive: viability, T/C (second compound 0.0316 µM, first compound 0.000316 µM) 116% | viability, T/C (second compound 0.0316 µM, first compound 0.001 µM) 112% | viability, T/C (second compound 0.0316 µM, first compound 0.00316 µM) 101% | viability, T/C (second compound 0.0316 µM, first compound 0.01 µM) 97.4% | viability, T/C [37] 101% | viability, T/C [38] 90.9% | viability, T/C (second compound 0.1 µM, first compound 0.000316 µM) 107% | viability, T/C (second compound 0.1 µM, first compound 0.001 µM) 105% | viability, T/C (second compound 0.1 µM, first compound 0.00316 µM) 98.5% | viability, T/C [39] 100% | viability, T/C [6] 103% | viability, T/C [7] 100% | viability, T/C (second compound 0.316 µM, first compound 0.000316 µM) 100% | viability, T/C (second compound 0.316 µM, first compound 0.001 µM) 104% | viability, T/C (second compound 0.316 µM, first compound 0.00316 µM) 103% | viability, T/C [40] 94.8% | viability, T/C [12] 96.1% | viability, T/C [13] 93% | viability, T/C (second compound 1 µM, first compound 0.000316 µM) 101% | viability, T/C (second compound 1 µM, first compound 0.001 µM) 106% | viability, T/C (second compound 1 µM, first compound 0.00316 µM) 94.6% | viability, T/C [41] 88.9% | viability, T/C [18] 95.1% | viability, T/C [19] 99.8% | viability, T/C (second compound 3.16 µM, first compound 0.000316 µM) 62.8% | viability, T/C (second compound 3.16 µM, first compound 0.001 µM) 68.4% | viability, T/C (second compound 3.16 µM, first compound 0.00316 µM) 61.5% | viability, T/C [42] 47.8% | viability, T/C [24] 50.7% | viability, T/C [25] 62.9%
> 100 nM: IC50 [36] | IC50 [1] | IC50 [2] | IC50 [3] | IC50 [4]

CC(=O)OC12COC1CC(O)C1(C)C(=O)C(O)C3=C(C)C(OC(=O)C(O)C(NC(=O)OC(C)(C)C)c4ccccc4)CC(O)(C(OC(=O)c4ccccc4)C21)C3(C)C (configuration not stated) + C=CC(=O)N1CCN(c2nc(=O)n(-c3c(C)ccnc3C(C)C)c3nc(-c4c(O)cccc4F)c(F)cc23)C(C)C1
259 nM: IC50 [1]
243 nM: IC50 [2]
244 nM: IC50 [3]
inactive: viability, T/C [39] 104% | viability, T/C [6] 94.6% | viability, T/C [7] 74.4% | viability, T/C [8] 44.6% | viability, T/C [9] 30.5% | viability, T/C [10] 26.7% | viability, T/C [40] 90.9% | viability, T/C [12] 98% | viability, T/C [13] 70.8% | viability, T/C [14] 44.9% | viability, T/C [15] 29.8% | viability, T/C [16] 27.4% | viability, T/C [41] 88.1% | viability, T/C [18] 84.5% | viability, T/C [19] 68.2% | viability, T/C [20] 45% | viability, T/C [21] 30% | viability, T/C [22] 26.5% | viability, T/C [42] 105% | viability, T/C [24] 93.5% | viability, T/C [25] 70.2% | viability, T/C [26] 45.7% | viability, T/C [27] 30.6% | viability, T/C [28] 27.5% | viability, T/C (second compound 10 µM, first compound 0.01 µM) 93.5% | viability, T/C [30] 87.1% | viability, T/C [31] 70.9% | viability, T/C [32] 38.1% | viability, T/C [33] 26.1% | viability, T/C [34] 24.1%
208 nM: IC50 [5]
253 nM: IC50 [4]

C=CC(=O)N1CCN(c2nc(OCC3CCCN3C)nc3c2CCN(c2cccc4cccc(C)c24)C3)CC1CC#N (configuration not stated)
> 3160 nM: IC50 (compound alone, run of 07/12/2021) | IC50 (compound alone, run of 07/19/2021) | IC50 (compound alone, run of 07/26/2021)
inactive: viability, T/C (compound 0.0316 µM) 98.7% [middle of 17 runs] | viability, T/C (compound 0.1 µM) 97% [middle of 17 runs]

CC(C)n1nc(-c2ccc3oc(N)nc3c2)c2c(N)ncnc21
inactive: viability, T/C (compound 0.000316 µM) 107% [middle of 5 runs] | viability, T/C (compound 0.001 µM) 99.5% (2×) and 104% (2×) and 101% | viability, T/C (compound 0.00316 µM) 92.6% [middle of 5 runs] | viability, T/C (compound 0.01 µM) 63.2% [middle of 5 runs] | viability, T/C (compound 0.0316 µM) 33.3% [middle of 5 runs] | viability, T/C (compound 0.1 µM) 24.5% [middle of 5 runs]
18.9 nM [middle of 4 runs]: IC50 (curve of compound)
